The values below come from ChEMBL document CHEMBL4028858, “Structural Biology-Inspired Discovery of Novel KRAS-PDEδ Inhibitors” (J Med Chem, 2017).

pIC50, pKd: −log10 of the molar value. ≈ marks a conversion by molar mass, not a printed value. Calls of active or inactive are those of the source. The calls are words filed in the database; no cut-off is given here.

Series [1] concerns the target T1, Retinal rod rhodopsin-sensitive cGMP 3',5'-cyclic phosphodiesterase subunit delta (Homo sapiens, UniProt O43924).
Description: Inhibition of Atrovastatin-PEG3-FITC binding to PDEdelta (unknown origin) incubated for 60 mins by fluorescence anisotropy assay
Series [2] has as its system CAPAN-1. As to the kind of experiment: Antiproliferative activity against KRAS-dependent human Capan1 cells after 48 hrs by CCK8 assay.
Series [3] is described as follows: Aqueous solubility of the compound at 5 mg/ml measured after 24 hrs by HPLC method. It counts as physicochemical. As to conditions: water (aqueous).
Series [4] has as its system CAPAN-1. As to the kind of experiment: Induction of apoptosis in KRAS-dependent human Capan1 cells at 25 uM incubated for 48 hrs by Annexin-V FITC/propidium iodide staining-based flow cytometry relative to control. It counts as functional.
In series [5] the test system is CAPAN-1. As to the kind of experiment: Induction of apoptosis in KRAS-dependent human Capan1 cells incubated for 48 hrs by Annexin-V FITC/propidium iodide staining-based flow cytometry. It counts as functional, cell-based.
Series [6] relates to CAPAN-1. As to the kind of experiment: Downregulation of PDEdelta protein expression in KRAS-dependent human Capan1 cells at 25 uM incubated for 2 hrs by immunofluorescence staining-based method. It counts as functional, cell-based.
For series [7], the system named is CAPAN-1. As to the kind of experiment: Induction of apoptosis in KRAS-dependent human Capan1 cells at 50 uM incubated for 48 hrs by Annexin-V FITC/propidium iodide staining-based flow cytometry relative to control. It counts as functional.
In series [8] the target is T1, Retinal rod rhodopsin-sensitive cGMP 3',5'-cyclic phosphodiesterase subunit delta. As to conditions: 1 mM.
Description: Binding affinity to PDEdelta (unknown origin) assessed as change in melting temperature at 1 mM by circular dichroism spectroscopy
Series [9] has the same target. As to conditions: 10 uM.
Description: Inhibition of PDEdelta in KRAS-dependent human Capan1 cells assessed as downregulation of EGF-induced ERK phosphorylation at Thr202/Thr204 at 10 uM incubated for >5 hrs by Western blot method
The subject of series [10] is CAPAN-1. The series is described as follows: Downregulation of PDEdelta protein expression in KRAS-dependent human Capan1 cells at 10 uM incubated for 2 hrs by immunofluorescence staining-based method. It counts as functional, cell-based.
For series [11], the target named is T1, Retinal rod rhodopsin-sensitive cGMP 3',5'-cyclic phosphodiesterase subunit delta. As to conditions: 10 uM. This is another data set of the same source.
Description: Inhibition of PDEdelta in KRAS-dependent human Capan1 cells assessed as downregulation of EGF-induced AKT phosphorylation at Ser473 at 10 uM incubated for >5 hrs by Western blot method
Series [12] has the same target. As to conditions: 10 uM. The source holds these as a separate data set.
Description: Inhibition of PDEdelta in KRAS-dependent human Capan1 cells assessed as increase in endogenous RAS distribution to endomembranes at 10 uM incubated for 2 hrs by immunofluorescence staining based method
For series [13], the system named is CAPAN-1. As to the kind of experiment: Potency index, ratio of deltazinone IC50 to test compound IC50 for KRAS-dependent human Capan1 cells. It counts as functional.
In series [14] the test system is CAPAN-1. The series is described as follows: Induction of apoptosis in KRAS-dependent human Capan1 cells at 10 uM incubated for 48 hrs by Annexin-V FITC/propidium iodide staining-based flow cytometry relative to control. It counts as functional.
In series [15] the target is RAC-alpha serine/threonine-protein kinase (Homo sapiens) (UniProt P31749). As to the kind of experiment: […] of EGF-induced AKT phosphorylation at Ser473 in human Capan1 cells at 25 uM after 1 hr by Western blot method. It counts as cell-based.
The species entered for a further series is Homo sapiens. As to the kind of experiment: Effect on EGF-induced ERK phosphorylation at Thr202/Tyr204 in human Capan1 cells at 25 uM after 1 hr by Western blot method.
Series [16] relates to CAPAN-1. As to the kind of experiment: Antiproliferative activity against KRAS-dependent human Capan1 cells at 100 uM after 48 hrs by CCK8 assay relative to control. It counts as functional.

T1 sequence (O43924 whole entry): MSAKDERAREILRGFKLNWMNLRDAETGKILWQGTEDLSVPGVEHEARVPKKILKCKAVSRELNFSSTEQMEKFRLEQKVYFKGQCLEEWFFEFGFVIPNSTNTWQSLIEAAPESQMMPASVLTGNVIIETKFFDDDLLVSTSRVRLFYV
Chain of RAC-alpha serine/threonine-protein kinase (Homo sapiens) (P31749 whole entry): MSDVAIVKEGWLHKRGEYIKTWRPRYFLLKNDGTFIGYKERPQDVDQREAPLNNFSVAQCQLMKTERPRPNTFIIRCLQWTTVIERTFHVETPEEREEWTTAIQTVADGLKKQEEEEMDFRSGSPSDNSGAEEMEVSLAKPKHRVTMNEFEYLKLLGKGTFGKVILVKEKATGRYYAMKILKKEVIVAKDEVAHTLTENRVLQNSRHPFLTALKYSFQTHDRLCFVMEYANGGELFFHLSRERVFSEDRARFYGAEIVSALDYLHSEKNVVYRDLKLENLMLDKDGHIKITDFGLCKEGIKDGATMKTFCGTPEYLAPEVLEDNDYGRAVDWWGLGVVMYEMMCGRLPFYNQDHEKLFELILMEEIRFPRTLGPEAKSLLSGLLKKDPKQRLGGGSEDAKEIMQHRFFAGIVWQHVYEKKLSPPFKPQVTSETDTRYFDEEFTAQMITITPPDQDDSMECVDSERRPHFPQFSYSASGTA

In series [1], `Cc1ccc(-n2nc3c(=O)n(CCC(=O)N4CCC(N5C(=O)c6ccccc6NC5c5ccccc5F)CC4)nc(C)c3c2C)cc1` (stereo in doubt; 3b) [listing 1 of 2 here] had a pKd of 8.70. Further, the pIC50 in the series on CAPAN-1 [2] (capan-1) is 4.73. Further, in series [3], the concentration in solution (solubility at 24 h) came to 268 µM (≈ 170 µg/mL). In the series on CAPAN-1 [4], this compound returned an Activity of 50%.
`Cc1ccc(-n2nc3c(=O)n(CCC(=O)N4CCC(N5C(=O)c6ccccc6NC5c5ccccc5F)CC4)nc(C)c3c2C)cc1` (single isomer, unassigned; (-)) gave a pKd in series [1] of 7.43. Also, the pIC50 in the series with CAPAN-1 [2] (capan-1) is 4.59.
On to `O=C1c2cccc3cccc(c23)N1c1ccc(-c2ccccc2)cc1`, for which the solubility at 24 h in series [3] amounted to 0.37 µM (≈ 0.119 µg/mL). This lies in the sub-micromolar range.
As for `O=C1c2ccccc2NC(c2ccccc2F)N1CCCCCCN1C(=O)c2ccccc2NC1c1ccccc1F` (stereo not given), in series [3], the solubility at 24 h came out at 14 µM (≈ 7.93 µg/mL).
In turn, `Cc1ccc(-n2nc3c(=O)n(CCCN4CCC(N5C(=O)c6ccccc6NC5c5ccccc5F)CC4)nc(C)c3c2C)cc1` (stereo not given) had a negative logarithm of the IC50 (pIC50) in the series with CAPAN-1 [2] (Homo sapiens, CAPAN-1, 48 h) of 4.56. Also, the solubility at 24 h in series [3] came out at 403 µM (≈ 250 µg/mL). Further, the results for the Activity entry in the series with CAPAN-1 [5] and with CAPAN-1 [4] were “Dose-dependent effect” and 50%, respectively.
Turning to `O=C1c2ccccc2N[C@@H](c2ccccc2F)N1CCN1CCC(N2C(=O)c3ccccc3N[C@H]2c2ccccc2F)CC1`, in the series on CAPAN-1 [6], the outcome was Active. Moreover, the Activity in the series on CAPAN-1 [7] turned out to be 39.3%; in the series with CAPAN-1 [4], 23.6%.
In series [3], `O=C1c2ccccc2NC(c2ccccc2F)N1CCCCCCCN1C(=O)c2ccccc2NC1c1ccccc1F` (stereo not given) registered a solubility at 24 h of 30.9 µM (≈ 17.9 µg/mL).
On to `O=C1c2ccccc2NC(c2ccccc2F)N1c1ccccc1` (racemic), for which the ΔTm in series [8] was determined as 12.7 °C.
On to `O=C1c2ccccc2NC(c2ccccc2F)N1CCOc1ccc(N2C(=O)c3ccccc3NC2c2ccccc2F)cc1` (stereo not given), for which the solubility at 24 h in series [3] came to 3.2 µM (≈ 1.93 µg/mL).
`O=C1c2ccccc2N[C@@H](c2ccccc2F)N1c1ccccc1`: the ΔTm in [8] came to 14 °C.
As for `O=C1c2ccccc2N[C@H](c2ccccc2F)N1c1ccccc1`, the ΔTm in series [8] is 5.75 °C.
The compound `O=C1c2ccccc2NC(c2ccccc2F)N1CCCCCN1C(=O)c2ccccc2NC1c1ccccc1F` (stereo not given) displayed a solubility at 24 h in [3] of 8.9 µM (≈ 4.92 µg/mL).
Take `Cc1ccc(-n2nc3c(=O)n(CCC(=O)N4CCC(N5C(=O)c6ccccc6NC5c5ccccc5F)CC4)nc(C)c3c2C)cc1` (stereo in doubt; 3b) [listing 2 of 2 here]: the inhibition entry in series [9], in [11] and in [12] was “Active” throughout. In the series on CAPAN-1 [5], the Activity entry is “Dose-dependent effect”. Moreover, the result in the series on CAPAN-1 [10] was Active.
In the case of `Cc1ccc(-n2nc3c(=O)n(CCC(=O)N4CCC(N5C(=O)c6ccccc6NC5c5ccccc5F)CC4)nc(C)c3c2C)cc1` (stereo in doubt; (+)-3b), the “Ratio IC50” value in the series on CAPAN-1 [13] amounted to 4. Further, the pKd in series [1] is 9.22. The pIC50 with CAPAN-1 [2] (capan-1) was 4.91.
Turning to `Cc1ccc(-n2nc3c(=O)n(CCCC(=O)NCC(C)c4ccccc4)nc(C)c3c2C)cc1` (stereo not given), the Activity with CAPAN-1 [14] is on record as 10%. Further, the outcome in series [15] was Active. This compound also gave a pIC50 in the series on CAPAN-1 [2] (Homo sapiens, CAPAN-1, 48 h) of 4.24. For the same compound, in the series filed under Homo sapiens, the result was inactive.
`O=C1c2ccccc2NC(c2ccccc2F)N1CCN1CCC(N2C(=O)c3ccccc3NC2c2ccccc2F)CC1` (stereo not given) returned a solubility at 24 h in series [3] of 70.6 µM (≈ 41.9 µg/mL). The same compound yielded an Activity in the series with CAPAN-1 [16] of 48.9%.
